Type in all cases: functional
Assay [1] concerns the target T1, Sentrin-specific protease 6 (Homo sapiens, UniProt Q9GZR1).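 Also: Luminescence-based dose-response confirmatory assay of SENP6 inhibition, following up an ultra-high-throughput screen.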
T1 sequence (Q9GZR1 whole entry): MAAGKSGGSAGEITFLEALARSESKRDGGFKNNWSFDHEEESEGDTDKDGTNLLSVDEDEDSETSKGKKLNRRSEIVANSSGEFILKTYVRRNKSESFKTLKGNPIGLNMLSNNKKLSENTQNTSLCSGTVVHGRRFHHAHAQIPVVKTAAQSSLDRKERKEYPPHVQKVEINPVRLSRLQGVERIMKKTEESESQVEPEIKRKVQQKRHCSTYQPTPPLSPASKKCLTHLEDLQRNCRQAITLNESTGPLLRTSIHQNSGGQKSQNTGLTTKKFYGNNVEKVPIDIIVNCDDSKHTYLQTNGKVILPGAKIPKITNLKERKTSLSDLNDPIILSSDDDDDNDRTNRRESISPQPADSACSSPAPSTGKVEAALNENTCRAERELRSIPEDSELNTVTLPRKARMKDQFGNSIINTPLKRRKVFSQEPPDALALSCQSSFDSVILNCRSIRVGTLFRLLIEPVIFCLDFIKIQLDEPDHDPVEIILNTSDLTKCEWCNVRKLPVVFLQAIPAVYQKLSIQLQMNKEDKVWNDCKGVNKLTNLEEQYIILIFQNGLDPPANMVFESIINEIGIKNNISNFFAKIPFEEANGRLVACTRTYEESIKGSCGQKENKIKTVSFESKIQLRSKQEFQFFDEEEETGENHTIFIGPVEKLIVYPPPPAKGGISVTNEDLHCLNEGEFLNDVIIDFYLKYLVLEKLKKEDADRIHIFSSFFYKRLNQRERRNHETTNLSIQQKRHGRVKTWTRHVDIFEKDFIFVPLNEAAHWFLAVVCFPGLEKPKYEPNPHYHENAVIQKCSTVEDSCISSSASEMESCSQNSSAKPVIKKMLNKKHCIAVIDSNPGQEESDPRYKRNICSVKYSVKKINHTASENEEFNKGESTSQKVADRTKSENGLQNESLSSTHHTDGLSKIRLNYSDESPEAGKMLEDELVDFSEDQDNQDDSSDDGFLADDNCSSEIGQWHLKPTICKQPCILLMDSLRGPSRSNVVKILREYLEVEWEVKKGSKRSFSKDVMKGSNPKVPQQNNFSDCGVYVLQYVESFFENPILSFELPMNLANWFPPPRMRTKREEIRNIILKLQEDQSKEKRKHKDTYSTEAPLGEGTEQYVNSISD

Assay [2] can be described thus: insulin promoter down-regulators in MIN6 cells, imaging, high-content screening, mouse beta cells (AID 1628).
In assay [3] the target is Serine/threonine-protein kinase N2 (Homo sapiens, UniProt Q16513).
Chain of Serine/threonine-protein kinase N2 (Q16513 whole entry): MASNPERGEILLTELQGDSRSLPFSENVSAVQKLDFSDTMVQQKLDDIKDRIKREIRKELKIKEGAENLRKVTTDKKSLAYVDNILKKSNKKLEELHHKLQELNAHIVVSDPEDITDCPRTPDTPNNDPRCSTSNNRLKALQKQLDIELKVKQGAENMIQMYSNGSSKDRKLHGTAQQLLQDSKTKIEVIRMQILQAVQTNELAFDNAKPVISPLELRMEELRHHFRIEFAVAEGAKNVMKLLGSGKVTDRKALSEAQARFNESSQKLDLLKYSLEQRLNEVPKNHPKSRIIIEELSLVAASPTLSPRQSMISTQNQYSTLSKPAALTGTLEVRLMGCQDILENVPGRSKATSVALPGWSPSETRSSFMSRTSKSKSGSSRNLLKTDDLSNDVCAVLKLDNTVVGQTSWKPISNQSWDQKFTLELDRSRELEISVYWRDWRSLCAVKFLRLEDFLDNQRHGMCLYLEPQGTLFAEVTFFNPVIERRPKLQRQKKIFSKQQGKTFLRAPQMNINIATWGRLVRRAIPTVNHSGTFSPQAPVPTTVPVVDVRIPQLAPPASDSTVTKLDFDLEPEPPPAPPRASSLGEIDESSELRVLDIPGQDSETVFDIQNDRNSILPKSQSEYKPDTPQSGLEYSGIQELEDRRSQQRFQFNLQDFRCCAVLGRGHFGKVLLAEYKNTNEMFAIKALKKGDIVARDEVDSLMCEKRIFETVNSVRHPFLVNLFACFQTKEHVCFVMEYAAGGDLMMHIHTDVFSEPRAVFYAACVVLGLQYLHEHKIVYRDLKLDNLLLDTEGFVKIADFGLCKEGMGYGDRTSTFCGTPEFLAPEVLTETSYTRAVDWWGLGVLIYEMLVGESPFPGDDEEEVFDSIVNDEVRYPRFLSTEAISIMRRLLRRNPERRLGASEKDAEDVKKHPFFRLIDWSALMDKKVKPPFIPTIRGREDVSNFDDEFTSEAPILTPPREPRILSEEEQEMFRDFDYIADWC
The target of assay [4] is STE20-like serine/threonine-protein kinase (Homo sapiens, UniProt Q9H2G2).
For assay [5], the target named is Tyrosine-protein kinase JAK3 (Homo sapiens, UniProt P52333).
The target in assay [6] is MAP/microtubule affinity-regulating kinase 4 (Homo sapiens, UniProt Q96L34). The assay can be described thus: Navigating the Kinome. Panel member name: MARK4.
For assay [7], the target named is Mitogen-activated protein kinase 1 (Homo sapiens, UniProt P28482).
Chain of Mitogen-activated protein kinase 1 (P28482 whole entry): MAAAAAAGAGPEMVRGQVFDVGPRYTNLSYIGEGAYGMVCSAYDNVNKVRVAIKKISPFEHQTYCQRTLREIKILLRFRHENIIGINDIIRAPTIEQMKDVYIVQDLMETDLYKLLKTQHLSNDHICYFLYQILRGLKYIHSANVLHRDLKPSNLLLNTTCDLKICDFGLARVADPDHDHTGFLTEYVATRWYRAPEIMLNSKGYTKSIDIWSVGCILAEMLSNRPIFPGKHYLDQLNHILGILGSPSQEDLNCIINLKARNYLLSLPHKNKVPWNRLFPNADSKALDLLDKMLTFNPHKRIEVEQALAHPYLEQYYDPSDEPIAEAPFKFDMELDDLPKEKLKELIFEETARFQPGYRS
Assay [8] addresses Serine/threonine-protein kinase pim-3 (Homo sapiens, UniProt Q86V86).
Assay [9] has as its target Casein kinase I isoform alpha (Homo sapiens, UniProt P48729).
The target of assay [10] is Vascular endothelial growth factor receptor 1 (Homo sapiens, UniProt P17948).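 Also: measured within a kinome-wide profiling panel, FLT1 as the panel member.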
Assay [11] concerns the target Serine/threonine-protein kinase D2 (Homo sapiens, UniProt Q9BZL6).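 Also: measured against PRKD2 as one member of a kinome-wide kinase profiling panel.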
For assay [12], the target named is Dual specificity mitogen-activated protein kinase kinase 1 (Homo sapiens, UniProt Q02750). Put plainly: Navigating the Kinome. Panel member name: MAP2K1.
Chain of Dual specificity mitogen-activated protein kinase kinase 1 (Q02750 whole entry): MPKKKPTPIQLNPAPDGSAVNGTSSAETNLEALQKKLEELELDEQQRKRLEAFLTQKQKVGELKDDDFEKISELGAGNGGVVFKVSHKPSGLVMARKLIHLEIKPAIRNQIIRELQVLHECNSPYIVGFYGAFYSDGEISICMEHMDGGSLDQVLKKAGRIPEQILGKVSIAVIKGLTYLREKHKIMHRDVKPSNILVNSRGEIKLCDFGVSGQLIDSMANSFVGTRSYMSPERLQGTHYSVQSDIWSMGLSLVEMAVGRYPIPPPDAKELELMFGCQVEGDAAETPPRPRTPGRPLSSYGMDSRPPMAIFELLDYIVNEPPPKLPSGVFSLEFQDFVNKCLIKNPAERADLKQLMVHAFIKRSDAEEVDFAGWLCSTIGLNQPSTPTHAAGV
For assay [13], the target named is Vascular endothelial growth factor receptor 3 (Homo sapiens, UniProt P35916).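 Also: value from a kinome-wide profiling panel, with FLT4 as the panel member.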
In assay [14] the target is Proto-oncogene tyrosine-protein kinase ROS (Homo sapiens, UniProt P08922).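 Also: ROS1 tested as one member of a kinome-wide kinase panel.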
Assay [15] concerns the target Ribosomal protein S6 kinase beta-1 (Homo sapiens, UniProt P23443).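 Also: measured as one member of a kinome-wide profiling panel.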
Assay [16] deals with Protein kinase C gamma type (Homo sapiens, UniProt P05129).
Assay [17] deals with Receptor tyrosine-protein kinase erbB-4 (Homo sapiens, UniProt Q15303).
Assay [18] deals with Tyrosine-protein kinase Fer (Homo sapiens, UniProt P16591).
Assay [19] has as its target Rho-associated protein kinase 1 (Homo sapiens, UniProt Q13464).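 Also: measured within a broad kinome-wide panel profiling many kinases.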
The target in assay [20] is Serine/threonine-protein kinase DCLK1 (Homo sapiens, UniProt O15075).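 Also: affinity for DCLK1 (listed as DCAMKL1) measured as one member of a kinome-wide kinase profiling panel.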
Chain of Serine/threonine-protein kinase DCLK1 (O15075 whole entry): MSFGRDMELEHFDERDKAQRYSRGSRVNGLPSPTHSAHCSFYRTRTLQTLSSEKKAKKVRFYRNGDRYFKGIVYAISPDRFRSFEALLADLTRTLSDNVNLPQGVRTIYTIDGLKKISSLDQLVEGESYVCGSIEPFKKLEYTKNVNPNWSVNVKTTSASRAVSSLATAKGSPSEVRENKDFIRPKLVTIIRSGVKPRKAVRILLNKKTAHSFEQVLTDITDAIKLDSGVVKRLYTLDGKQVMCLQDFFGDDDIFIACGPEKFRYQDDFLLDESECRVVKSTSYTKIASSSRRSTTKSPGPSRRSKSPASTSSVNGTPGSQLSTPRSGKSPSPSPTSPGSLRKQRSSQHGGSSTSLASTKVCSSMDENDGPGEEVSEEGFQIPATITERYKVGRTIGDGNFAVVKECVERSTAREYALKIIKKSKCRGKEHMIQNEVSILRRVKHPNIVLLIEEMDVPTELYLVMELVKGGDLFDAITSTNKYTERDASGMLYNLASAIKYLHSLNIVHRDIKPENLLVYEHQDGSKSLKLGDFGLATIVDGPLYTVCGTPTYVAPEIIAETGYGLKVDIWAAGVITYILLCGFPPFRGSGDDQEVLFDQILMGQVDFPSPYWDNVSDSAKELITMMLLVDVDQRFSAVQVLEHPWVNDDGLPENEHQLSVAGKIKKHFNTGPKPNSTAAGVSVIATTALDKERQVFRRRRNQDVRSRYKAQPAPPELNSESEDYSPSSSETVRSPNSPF
In assay [21] the target is Serine/threonine-protein kinase Nek2 (Homo sapiens, UniProt P51955).
Chain of Serine/threonine-protein kinase Nek2 (P51955 whole entry): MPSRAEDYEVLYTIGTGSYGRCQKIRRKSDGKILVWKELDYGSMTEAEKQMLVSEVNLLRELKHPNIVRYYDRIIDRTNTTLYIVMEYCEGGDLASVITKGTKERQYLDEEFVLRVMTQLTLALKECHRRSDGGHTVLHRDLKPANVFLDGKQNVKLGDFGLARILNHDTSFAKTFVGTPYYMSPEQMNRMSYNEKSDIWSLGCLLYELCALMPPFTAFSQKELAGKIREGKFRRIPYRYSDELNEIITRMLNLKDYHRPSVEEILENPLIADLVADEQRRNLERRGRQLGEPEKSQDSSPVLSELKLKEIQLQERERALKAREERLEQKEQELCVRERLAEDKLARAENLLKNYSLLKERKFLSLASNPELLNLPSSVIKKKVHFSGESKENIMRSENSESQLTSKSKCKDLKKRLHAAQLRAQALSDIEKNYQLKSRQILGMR
Assay [22] addresses Tyrosine-protein kinase BTK (Homo sapiens, UniProt Q06187).
In assay [23] the target is Serine/threonine-protein kinase D3 (Homo sapiens, UniProt O94806).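 Also: determined within a kinase panel screen, with PRKCN as the panel member.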
Assay [24] concerns the target Casein kinase I isoform delta (Homo sapiens, UniProt P48730).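 Also: measured as one member (CSNK1D) of a kinome panel.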
In assay [25] the target is Serine/threonine-protein kinase PLK4 (Homo sapiens, UniProt O00444).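 Also: PLK4 measured as one member of a kinome-wide kinase profiling panel.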

Activity calls are given as the source filed them.

Chain of Rho-associated protein kinase 1 (Q13464 whole entry): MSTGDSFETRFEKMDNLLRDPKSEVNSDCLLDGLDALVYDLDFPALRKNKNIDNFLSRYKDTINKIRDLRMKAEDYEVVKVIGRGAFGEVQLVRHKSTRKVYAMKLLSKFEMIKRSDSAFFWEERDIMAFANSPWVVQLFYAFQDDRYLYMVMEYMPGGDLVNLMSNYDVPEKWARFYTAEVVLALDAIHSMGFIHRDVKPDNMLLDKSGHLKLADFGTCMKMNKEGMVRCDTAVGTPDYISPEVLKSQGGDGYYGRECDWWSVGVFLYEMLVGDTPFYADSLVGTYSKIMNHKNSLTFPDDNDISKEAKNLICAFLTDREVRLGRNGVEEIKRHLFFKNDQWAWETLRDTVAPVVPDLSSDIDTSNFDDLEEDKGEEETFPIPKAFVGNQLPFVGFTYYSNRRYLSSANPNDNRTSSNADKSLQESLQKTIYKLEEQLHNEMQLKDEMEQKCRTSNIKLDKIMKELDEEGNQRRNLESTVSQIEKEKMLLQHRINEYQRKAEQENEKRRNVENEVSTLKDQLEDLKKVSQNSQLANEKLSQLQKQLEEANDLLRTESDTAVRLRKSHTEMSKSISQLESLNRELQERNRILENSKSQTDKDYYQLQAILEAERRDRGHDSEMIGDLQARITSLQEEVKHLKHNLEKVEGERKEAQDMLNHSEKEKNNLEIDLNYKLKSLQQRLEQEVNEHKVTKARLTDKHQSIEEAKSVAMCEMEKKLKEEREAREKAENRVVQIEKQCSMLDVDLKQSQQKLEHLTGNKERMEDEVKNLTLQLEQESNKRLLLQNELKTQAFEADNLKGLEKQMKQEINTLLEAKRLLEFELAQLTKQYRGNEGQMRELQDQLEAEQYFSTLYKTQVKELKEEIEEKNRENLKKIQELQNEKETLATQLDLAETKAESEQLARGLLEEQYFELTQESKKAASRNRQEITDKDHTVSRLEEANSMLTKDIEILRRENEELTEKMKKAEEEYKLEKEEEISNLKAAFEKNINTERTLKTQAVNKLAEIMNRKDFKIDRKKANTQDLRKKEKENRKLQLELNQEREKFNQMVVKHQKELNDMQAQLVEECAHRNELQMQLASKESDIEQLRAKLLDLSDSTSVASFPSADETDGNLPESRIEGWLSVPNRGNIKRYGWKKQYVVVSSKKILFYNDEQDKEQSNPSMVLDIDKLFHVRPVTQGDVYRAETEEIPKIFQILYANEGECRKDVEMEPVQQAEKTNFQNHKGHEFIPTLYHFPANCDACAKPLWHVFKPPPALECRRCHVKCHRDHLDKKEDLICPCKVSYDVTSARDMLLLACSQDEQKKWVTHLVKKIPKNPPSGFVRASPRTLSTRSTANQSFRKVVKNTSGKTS
Chain of Casein kinase I isoform delta (P48730 whole entry, canonical isoform): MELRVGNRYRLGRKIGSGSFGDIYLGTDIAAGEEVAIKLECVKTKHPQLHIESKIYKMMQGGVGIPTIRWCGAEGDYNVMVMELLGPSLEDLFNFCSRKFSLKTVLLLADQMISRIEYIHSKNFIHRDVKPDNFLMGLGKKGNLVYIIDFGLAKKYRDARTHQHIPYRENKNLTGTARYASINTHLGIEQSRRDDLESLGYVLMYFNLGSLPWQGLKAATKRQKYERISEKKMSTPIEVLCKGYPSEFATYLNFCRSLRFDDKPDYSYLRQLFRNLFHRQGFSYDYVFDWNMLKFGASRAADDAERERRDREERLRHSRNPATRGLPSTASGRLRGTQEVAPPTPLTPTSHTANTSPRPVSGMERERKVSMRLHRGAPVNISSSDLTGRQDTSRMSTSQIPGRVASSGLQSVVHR

With `CCOC(=O)c1c(NS(=O)(=O)c2ccccc2)n(CCCOC)c2nc3ccccc3nc12`, the IC50 in assay [1] is 596 nM (active).

For the molecule `O=C(COC(=O)c1ccc([N+](=O)[O-])s1)NCCc1ccccc1`, in [1], the concentration for half-maximal inhibition (IC50) was 4790 nM (active).

As to `COCC/N=c1\scc(-c2cccs2)n1/N=C/c1ccc(O)c(O)c1O`, in assay [2], the IC50 was > 16000 nM (inactive).

As to `OC1CCC(Nc2cc(Cl)nc(-c3c[nH]c4ncccc34)n2)CC1` (stereo unspecified), the inhibition constant Ki is 12.6 nM (active) in assay [3]; 126 nM (active) in assay [4]; 200 nM (active) in [5]; 398 nM (active) in assay [6]; > 5010 nM (inactive) in assay [7]; 1260 nM (active) in assay [8]. Moreover, the Ki was > 2510 nM (inactive) in assay [9]; > 1580 nM (inactive) in [10]; 316 nM (active) in [11]; 31.6 nM (active) in [12]; 63.1 nM (active) in [13]; 794 nM (active) in [14]. Moreover, the Ki in assay [15] is 251 nM (active); in assay [16], 251 nM (active); in assay [17] it was > 3980 nM (inactive); in assay [18], 501 nM (active); in assay [19], 31.6 nM (active); in assay [20], > 10000 nM (inactive). Besides, the Ki in [21] was 3980 nM (active); in assay [22], > 2510 nM (inactive); in [23], 158 nM (active); in [24], 200 nM (active); in [25], > 2510 nM (inactive).

The record behind these values is ChEMBL document CHEMBL1201862, “PubChem BioAssay data set” (2004).
